Measured values: patent US6472391B2, “Nitrogen-containing heterocyclic compounds” (Millennium Pharmaceuticals, Inc., priority 1996, dated 2002)

| melting point [°C] | Structure (SMILES) |
| --- | --- |
| 102 to 104 | COc1cccc2c(N3CCN(C(=O)Nc4ccc(C(C)C)cc4)CC3)ncnc12 [Compound 326, N-(4-Isopropylphenyl)-4-(8-methoxy-4-quinazolinyl)-1-piperazinecarboxamide] |
| 108 to 109 | COc1cccc2c(N3CCN(C(=O)Nc4ccc(Oc5ccccc5)cc4)CC3)ncnc12 [Compound 327, 4-(8-Methoxy-4-quinazolinyl)-N-(4-phenoxyphenyl)-1-piperazinecarboxamide] |
| 239 to 240 | COc1cccc2c(N3CCN(C(=O)Nc4ccc(C(C)=O)cc4)CC3)ncnc12 [Compound 328, N-(4-Acetylphenyl)-4-(8-methoxy-4-quinazolinyl)-1-piperazinecarboxamide] |
| 177 to 178 | O=C(Nc1ccc(Oc2ccccc2)cc1)N1CCN(c2ncnc3cc(F)c(F)cc23)CC1 [Compound 329, 4-(6,7-Difluoro-4-quinazolinyl)-N-(4-phenoxyphenyl)-1-piperazinecarboxamide] |
| 119 to 120 | Fc1cc2ncnc(N3CCN(C(=S)NCc4ccccc4)CC3)c2cc1F [Compound 330, N-Benzyl-4-(6,7-difluoro-4-quinazolinyl)-1-piperazinethiocarboxamide] |
| 177 to 178 | Fc1cc2ncnc(N3CCN(C(=S)NCc4cccnc4)CC3)c2cc1F [Compound 331, 4-(6,7-Difluoro-4-quinazolinyl)-N-(3-picolyl)-1-piperazinethiocarboxamide] |
| 197 to 198 | CCOc1cc2ncnc(N3CCN(C(=O)Nc4ccc(Oc5ccccc5)cc4)CC3)c2cc1F [Compound 332, 4-(7-Ethoxy-6-fluoro-4-quinazolinyl)-N-(4-phenoxyphenyl)-1-piperazinecarboxamide] |
| 188 to 189 | COc1cc2c(N3CCN(C(=O)Nc4ccc(Oc5ccccc5)cc4)CC3)ncnc2cc1C [Compound 333, 4-(6-Methoxy-7-methyl-4-quinazolinyl)-N-(4-phenoxyphenyl)-1-piperazinecarboxamide] |
| 242 to 243 | COc1cc2c(N3CCN(C(=O)Nc4ccc(C#N)cc4)CC3)ncnc2cc1C [Compound 334, N-(4-Cyanophenyl)-4-(6-methoxy-7-methyl-4-quinazolinyl)-1-piperazinecarboxamide] |
| 174 to 175 | CCOc1cc2ncnc(N3CCN(C(=O)Nc4ccc(Oc5ccccc5)cc4)CC3)c2cc1OC [Compound 335, 4-(7-Ethoxy-6-methoxy-4-quinazolinyl)-N-(4-phenoxyphenyl)-1-piperazinecarboxamide] |
| 210 to 212 | CCOc1cc2ncnc(N3CCN(C(=O)Nc4ccc(Br)cc4)CC3)c2cc1OC [Compound 336, N-(4-Bromophenyl)-4-(7-ethoxy-6-methoxy-4-quinazolinyl)-1-piperazinecarboxamide] |
| 168 to 169 | CCOc1cc2ncnc(N3CCN(C(=S)NCc4ccccc4)CC3)c2cc1OC [Compound 337, N-Benzyl-4-(7-ethoxy-6-methoxy-4-quinazolinyl)-1-piperazinethiocarboxamide] |
| 169 to 170 | CCOc1cc2ncnc(N3CCN(C(=S)NCc4cccnc4)CC3)c2cc1OC [Compound 338, 4-(7-Ethoxy-6-methoxy-4-quinazolinyl)-N-(3-picolyl)-1-piperazinethiocarboxamide] |
| 157 to 160 | COc1cc2c(N3CCN(C(=O)Nc4ccc(Oc5ccccc5)cc4)CC3)ncnc2cc1OC(C)C [Compound 339, 4-(7-Isopropoxy-6-methoxy-4-quinazolinyl)-N-(4-phenoxyphenyl)-1-piperazinecarboxamide] |
| 174 to 175 | COc1cc2c(N3CCN(C(=S)NCc4ccccc4)CC3)ncnc2cc1OC(C)C [Compound 341, N-Benzyl-4-(7-isopropoxy-6-methoxy-4-quinazolinyl)-1-piperazinethiocarboxamide] |
| 205 to 206 | COc1cc2c(N3CCN(C(=S)NCc4cccnc4)CC3)ncnc2cc1OC(C)C [Compound 342, 4-(7-Isopropoxy-6-methoxy-4-quinazolinyl)-N-(3-picolyl)-1-piperazinethiocarboxamide] |
| 213 to 214 | CCOc1cc2c(N3CCN(C(=O)Nc4ccc(Oc5ccccc5)cc4)CC3)ncnc2cc1OC [Compound 346, 4-(6-Ethoxy-7-methoxy-4-quinazolinyl)-N-(4-phenoxyphenyl)-1-piperazinecarboxamide] |
| 178 to 179 | CCOc1cc2c(N3CCN(C(=O)Nc4ccc(C#N)cc4)CC3)ncnc2cc1OC [Compound 347, N-(4-Cyanophenyl)-4-(6-ethoxy-7-methoxy-4-quinazolinyl)-1-piperazinecarboxamide] |
| 170 to 171 | CCOc1cc2c(N3CCN(C(=S)NCc4ccccc4)CC3)ncnc2cc1OC [Compound 348, N-Benzyl-4-(6-ethoxy-7-methoxy-4-quinazolinyl)-1-piperazinethiocarboxamide] |
| 208 to 209 | CCOc1cc2c(N3CCN(C(=S)NCc4cccnc4)CC3)ncnc2cc1OC [Compound 349, 4-(6-Ethoxy-7-methoxy-4-quinazolinyl)-N-(3-picolyl)-1-piperazinethiocarboxamide] |
| 228 to 229 | COc1cc2ncnc(N3CCN(C(=O)Nc4ccc(Oc5ccccc5)cc4)CC3)c2cc1OS(C)(=O)=O [Compound 350, 4-(6-Mesyloxy-7-methoxy-4-quinazolinyl)-N-(4-phenoxyphenyl)-1-piperazinecarboxamide] |

The remaining lines, values behind:

| Structure (SMILES) | melting point [°C] |
| --- | --- |
| CC(C)c1ccc(NC(=O)N2CCN(c3ncnc4ccc(F)cc34)CC2)cc1 [Compound 296, 4-(6-Fluoro-4-quinazolinyl)-N-(4-isopropylphenyl)-1-piperazinecarboxamide] | 139 to 140 |
| CC(=O)c1ccc(NC(=O)N2CCN(c3ncnc4ccc(F)cc34)CC2)cc1 [Compound 298, N-(4-Acetylphenyl)-4-(6-fluoro-4-quinazolinyl)-1-piperazinecarboxamide] | 184 to 185 |
| Fc1ccc2ncnc(N3CCN(C(=S)NCc4cccnc4)CC3)c2c1 [Compound 299, 4-(6-Fluoro-4-quinazolinyl)-N-(3-picolyl)-1-piperazinethiocarboxamide] | 170 to 172 |
| CC(C)c1ccc(NC(=O)N2CCN(c3ncnc4ccc(Cl)cc34)CC2)cc1 [Compound 300, 4-(6-Chloro-4-quinazolinyl)-N-(4-isopropylphenyl)-1-piperazinecarboxamide] | 192 to 193 |
| O=C(Nc1ccc(Oc2ccccc2)cc1)N1CCN(c2ncnc3ccc(Cl)cc23)CC1 [Compound 301, 4-(6-Chloro-4-quinazolinyl)-N-(4-phenoxyphenyl)-1-piperazinecarboxamide] | 116 to 120 |
| CC(=O)c1ccc(NC(=O)N2CCN(c3ncnc4ccc(Cl)cc34)CC2)cc1 [Compound 302, N-(4-Acetylphenyl)-4-(6-chloro-4-quinazolinyl)-1-piperazinecarboxamide] | 207 to 208 |
| O=C(Nc1ccc(Oc2ccccc2)cc1)N1CCN(c2ncnc3ccc(Br)cc23)CC1 [Compound 303, 4-(6-Bromo-4-quinazolinyl)-N-(4-phenoxyphenyl)-1-piperazinecarboxamide] | 169 to 170 |
| CC(C)c1ccc(NC(=O)N2CCN(c3ncnc4ccc(I)cc34)CC2)cc1 [Compound 304, 4-(6-Iodo-4-quinazolinyl)-N-(4-isopropylphenyl)-1-piperazinecarboxamide] | 211 to 212 |
| O=C(Nc1ccc(Oc2ccccc2)cc1)N1CCN(c2ncnc3ccc(I)cc23)CC1 [Compound 305, 4-(6-Iodo-4-quinazolinyl)-N-(4-phenoxyphenyl)-1-piperazinecarboxamide] | 184 to 185 |
| COc1ccc2ncnc(N3CCN(C(=O)Nc4ccc(Oc5ccccc5)cc4)CC3)c2c1 [Compound 307, 4-(6-Methoxy-4-quinazolinyl)-N-(4-phenoxyphenyl)-1-piperazinecarboxamide] | 139 to 140 |
| COc1ccc2ncnc(N3CCN(C(=O)Nc4ccc([N+](=O)[O-])cc4)CC3)c2c1 [Compound 308, 4-(6-Methoxy-4-quinazolinyl)-N-(4-nitrophenyl)-1-piperazinecarboxamide] | 228 to 229 |
| COc1ccc2ncnc(N3CCN(C(=S)NCc4ccccc4)CC3)c2c1 [Compound 309, N-Benzyl-4-(6-methoxy-4-quinazolinyl)-1-piperazinethiocarboxamide] | 68 to 70 |
| COc1ccc2ncnc(N3CCN(C(=S)NCc4cccnc4)CC3)c2c1 [Compound 310, 4-(6-Methoxy-4-quinazolinyl)-N-(3-picolyl)-1-piperazinethiocarboxamide] | 139 to 140 |
| O=C(Nc1ccc(Oc2ccccc2)cc1)N1CCN(c2ncnc3ccc([N+](=O)[O-])cc23)CC1 [Compound 311, 4-(6-Nitro-4-quinazolinyl)-N-(4-phenoxyphenyl)-1-piperazinecarboxamide] | 170 to 171 |
| Cc1ccc2c(N3CCN(C(=O)Nc4ccc([N+](=O)[O-])cc4)CC3)ncnc2c1 [Compound 313, 4-(7-Methyl-4-quinazolinyl)-N-(4-nitrophenyl)-1-piperazinecarboxamide] | 251 to 254 |
| Cc1ccc2c(N3CCN(C(=S)NCc4ccccc4)CC3)ncnc2c1 [Compound 314, N-Benzyl-4-(7-methyl-4-quinazolinyl)-1-piperazinethiocarboxamide] | 177 to 178 |
| S=C(NCc1ccccc1)N1CCN(c2ncnc3cc(Cl)ccc23)CC1 [Compound 317, N-Benzyl-4-(7-chloro-4-quinazolinyl)-1-piperazinethiocarboxamide] | 70 to 71 |
| CC(C)Oc1ccc2c(N3CCN(C(=O)Nc4ccc(Oc5ccccc5)cc4)CC3)ncnc2c1 [Compound 318, 4-(7-Isopropoxy-4-quinazolinyl)-N-(4-phenoxyphenyl)-1-piperazinecarboxamide] | 181 to 182 |
| O=C(Nc1ccc(Oc2ccccc2)cc1)N1CCN(c2ncnc3cc([N+](=O)[O-])ccc23)CC1 [Compound 322, 4-(7-Nitro-4-quinazolinyl)-N-(4-phenoxyphenyl)-1-piperazinecarboxamide] | 146 to 148 |
| CC(=O)c1ccc(NC(=O)N2CCN(c3ncnc4c(Cl)cccc34)CC2)cc1 [Compound 325, N-(4-Acetylphenyl)-4-(8-chloro-4-quinazolinyl)-1-piperazinecarboxamide] | 208 to 209 |
